The source of these data is patent publication US5541232A, “Treatment of multidrug resistant diseases” (Chemex Pharmaceuticals, Inc., priority 1994, dated 1996).

By IC50 is commonly meant the concentration at which inhibition is half-maximal.

Data set [1] deals with human breast adenocarcinoma. To be noted: cited from earlier work.
Data set [2] concerns WI-38 Lung Fibroblasts. The experiment in a line: in vitro cytotoxicity, normal cells. The data set is classed as cell-based. To be noted: Homo sapiens.
Data set [3] deals with Lung (LX-1) cancer cells. The experiment in a line: in vitro cytotoxicity anti tumor activity. The data set is classed as cell-based. Conditions: 1 h.
In data set [4] the test system is DLD-1 Colon cancer cells. The experiment in a line: in vitro cytotoxicity anti tumor activity. Conditions: Homo sapiens. The data set is classed as cell-based.
The subject of data set [5] is MCF7/0 human breast adenocarcinoma cells. The experiment in a line: flow cytometry P-glycoprotein function assay of doxorubicin efflux, MCF7/0 (doxorubicin sensitive). The data set is classed as cell-based. As for the experimental part: (§1) The following tests were preformed to determine the effect of NDGA on efflux of doxorubicin (hereinafter sometimes referred to as DOX) for doxorubicin sensitive MCF7/0 and doxorubicin resistant MCF7/ADR human breast adenocarcinoma cells in vitro.
(§2) The cells were exposed to 50 μg/ml NDGA for 24 hrs prior to loading with DOX (doxorubicin) at 37° C. […] PBS. Flow analysis of cell efflux of DOX was collected over 30 minutes using the time parameter.
(§3) Procedure for P-Glycoprotein (PGP) Function Assay of Doxorubicin Efflux is shown hereunder.
(§4) 1. […] Store at room temperature.
(§5) 2. Doxorubicin (GFW=580) Make a solution of doxorubicin to contain 10 μg/ml. Store frozen at 0° C.
(§6) 4. NDGA (MW=302.36) Make a solution of NDGA to contain 50 μg/ml. Store frozen at 0° C.
(§7) 5. MCF7/0 (Doxorubicin sensitive) and MCF7/ADR (Doxorubicin resistant), human breast adenocarcinoma cell lines.
(§8) 1. Make up 2×10^6 cells per ml in PBS. Expose 1 ml of cells to 50 μg of NDGA for 24 hrs at 37° C. prior to loading with Doxorubicin.
(§9) 2. Add 1 ml of 10 μg/ml doxorubicin, mix and divide into two aliquots.
(§10) 4. Incubate both tubes at 37° C. for 30 minutes.
(§11) 5. Centrifuge the tubes at 37° C. for 5 minutes on a fast spin to pellet cells. Resuspend in 1 ml of buffer.
(§12) 6. Run immediately on the flow cytometer. Excitation 488 nm, emission 560-600 nm. Collect forward and 90° side scatter and PMT4 linear scale. Collect 10,000-50,000 events and calculate the mean channel fluorescence (MCF) for PMT4.
(§13) 7. Run both samples as close together as possible, and avoid prolonged exposure to room temperature.
For orientation: A flow cytometer gives signals particle by particle.

Data set [6] deals with CAK-1 Renal cancer cells. The experiment in a line: in vitro cytotoxicity anti tumor activity. The data set is classed as cell-based.
Data set [7] has as its system MCF7/ADR human breast adenocarcinoma cells. The experiment in a line: flow cytometry P-glycoprotein function assay of doxorubicin efflux, MCF7/ADR (doxorubicin resistant). The data set is classed as cell-based. The method, then: as §1, §2, §3, §4, §5, §6, §7, §8, §9, §10, §11, §12, §13
The test system of data set [8] is Hs 68 Newborn Foreskin Fibroblasts. The experiment in a line: in vitro cytotoxicity, normal cells. The data set is classed as cell-based. Conditions: Homo sapiens.
The test system of data set [9] is Lung (NCI-H23) cancer cells. The experiment in a line: in vitro cytotoxicity anti tumor activity. The data set is classed as cell-based. Conditions: Homo sapiens.
Data set [10] relates to SNB Glioblastoma cells. The experiment in a line: in vitro cytotoxicity anti tumor activity. The data set is classed as cell-based.
The subject of data set [11] is LOX-IMVI Melanoma cells. The experiment in a line: in vitro cytotoxicity anti tumor activity. Conditions: Homo sapiens. The data set is classed as cell-based.
In data set [12] the test system is OVCAR3 ovarian cancer cells. The experiment in a line: in vitro cytotoxicity anti tumor activity. The data set is classed as cell-based. Conditions: Homo sapiens.
For data set [13], the system named is Detroit 551 Skin Fibroblasts. The experiment in a line: in vitro cytotoxicity, normal cells. The data set is classed as cell-based. Conditions: Homo sapiens.
For data set [14], the system named is GRC-1 multidrug resistant human cervical carcinoma cells. The experiment in a line: inhibition of colony formation, GRC-1. The data set is classed as cell-based. From the text: (§14) To investigate whether masoprocol modulates multidrug resistance, a line of multidrug resistant (GRC-1) cells which were derived from parenteral drug sensitive human cervical carcinoma (KB-3-1) cells by transfection of the mdr1 genes were employed. Such transfection was by the method set forth in Choi, et al., Cell 53:519-529, 1989. These cell lines differ only with respect to the over-expression of P-glycoprotein. These tests were designed to examine whether masoprocol modulates tumor cell drug resistance by interfering with P-glycoprotein function. […] See, Regulation of initial vinblastine influx by P-glycoprotein, Shalinsky, et al., cited above.
Masoprocol was provided by Chemex Pharmaceuticals, Inc. (Fort Lee, N.J.). Tritiated vinblastine ([^3 H]VBL) (10 Ci mmol^-1) was purchased from Moravek Biochemicals (Brea, Calif.), stored in the dark at -80° C. and protected from light during the experiments. Dipyridamole (DPM) was provided by Boerhinger Ingelheim Pharmaceuticals, Inc. (Ridgefield, Conn.).
Drug-sensitive KB-3-1 cells and the drug resistant subline (KB-GRC-1) were obtained from Dr. Igor Roninson (University of Illinois, College of Medicine, Chicago, Ill.). Cells were maintained in Dulbecco's modified Eagle's medium supplemented with 10% fetal bovine serum and 2 mM glutamine. The KB-GRC-1 cells were maintained in medium supplemented with 6 ng/ml colchicine.
(§15) First, cells which had been seeded at 200-300 cells/dish were incubated in media containing masoprocol or VBL. After an incubation period of 10 days at 37° C. the cells were fixed with methanol and stained with Giemsa, and the number of colonies per dish were counted and expressed as a percent of the number of colonies in control conditions. […] Parenthesis indicate standard deviations determined from replicate experiments.

For data set [15], the system named is P-glycoprotein. To be noted: cited from earlier work.
The subject of data set [16] is KB-3-1 human cervical carcinoma cells. The experiment in a line: inhibition of colony formation, KB-3-1. The data set is classed as cell-based. To be noted: KB 3-1, 240 h, read-out: IC50 (VBL), 50% inhibition of colony formation.
Excerpt: as §14
Masoprocol was provided by Chemex Pharmaceuticals, Inc. (Fort Lee, N.J.). Tritiated vinblastine ([^3 H]VBL) (10 Ci mmol^-1) was purchased from Moravek Biochemicals (Brea, Calif.), stored in the dark at -80° C. and protected from light during the experiments. […]
as §15

The subject of data set [17] is P-glycoprotein. Conditions: known, Shalinsky et al.; cited from earlier work.
The mark [18] stands for this setting: No NDGA, DOX + Verapamil (30 μl of a 1 mM solution).
[19] abbreviates: No NDGA, DOX alone, 5 μg×30 min, 37° C.
Where [20] appears, read: RX NDGA (50 μg/ml, 24 hrs), DOX.
The mark [21] stands for this setting: RX NDGA (50 μg/ml, 24 hrs), DOX + Verapamil.

`Oc1ccc(CCCCc2cc(O)c(O)c(O)c2)cc1O` [1-(3',4'-dihydroxyphenyl)-4(3',4',5'-trihydroxyphenyl)-butane]: the “effectiveness against human breast adenocarcinoma” value (shortened to “effectiveness”) in data set [1] is “particularly effective”.

With `Oc1ccc(CCCCc2ccc(O)c(O)c2O)cc1O` [1-(3',4'-dihydroxyphenyl)-4-(2',3',4'-trihydroxphenyl)-butane], the “effectiveness” value in [1] is listed as “particularly effective”.

`COc1cc(CC(C)C(C)Cc2ccc(O)c(OC)c2)ccc1O` (centres unmarked) [1,4-bis(3'-methoxy-4'-hydroxyphenyl)-2,3-dimethyl butane]: the “effectiveness” value in [1] was “particularly effective”.

Consider `CCC(=O)Oc1ccc(C[C@@H](C)[C@@H](C)Cc2ccc(OC(=O)CC)c(OC(=O)CC)c2)cc1OC(=O)CC` [NDGA Tetrapropionate], for which the “effectiveness” value in [1] was “particularly effective”.

As to `COc1cccc2c1C(=O)c1c(O)c3c(c(O)c1C2=O)C[C@@](O)(C(=O)CO)C[C@@H]3O[C@H]1C[C@H](N)[C@H](O)[C@H](C)O1` [Doxorubicin], the half-inhibitory concentration (IC50) in data set [2] (WI-38, 1 h) stood at 10000 nM; in data set [2] (WI-38, 70 h) it was 600 nM; in [3], 26000 nM; in [4] (DLD-1, 1 h), 3700 nM; in data set [4] (DLD-1, 70 h), 420 nM; in [6] (1 h) it was 3800 nM. Also, the half-maximal inhibitory concentration (IC50) in [6] (70 h) turned out to be 110 nM; in [8] (Hs68, 1 h), 11600 nM; in [8] (Hs68, 70 h) it was 120 nM; in data set [9] (NCI-H23, 1 h), 9300 nM; in data set [9] (NCI-H23, 70 h), 150 nM; in data set [10] (1 h), 700 nM. In addition, the IC50 in data set [10] (70 h) is 30 nM; in [11] (1 h), 4800 nM; in data set [11] (70 h), 90 nM; in data set [12] (OVCAR-3, 1 h) it was 13800 nM; in data set [12] (OVCAR-3, 70 h) it was 700 nM; in [13] (Detroit 551, 1 h), 3200 nM. This molecule also displayed an IC50 in data set [13] (Detroit 551, 70 h) of 5500 nM. For the same molecule, the “Mean channel fluorescence (loading of DOX in cells)” value in [5] (setting [18]) is 312.8; in data set [5] (setting [19]), 318.7; in [5] (setting [20]) it was 460.4; in data set [5] (setting [21]), 435.6; in data set [7] (setting [18]), 309.9; in data set [7] (setting [19]), 227.4. Besides, the “Mean channel fluorescence (loading of DOX in cells)” value worked out at 285.6 in data set [7] (setting [20]) and 365.4 in [7] (setting [21]).

Turning to `C[C@@H](Cc1ccc(O)c(O)c1)[C@@H](C)Cc1ccc(O)c(O)c1` (relative stereo) [d,l NDGA], the “effectiveness” value in data set [1] is given as “particularly effective”.

Regarding `CC(=O)Oc1ccc(C[C@@H](C)[C@@H](C)Cc2ccc(OC(C)=O)c(OC(C)=O)c2)cc1OC(C)=O` [NDGA Tetracetate], in data set [1], the “effectiveness” value is “particularly effective”.

Regarding `Oc1ccc(CCCCc2ccccc2)cc1O` [1-(3',4'-dihydroxyphenyl)-4-phenyl butane], the “effectiveness” value in [1] is “particularly effective”.

Consider `Oc1ccc(O)c(CCCCc2ccc(O)c(O)c2)c1` [1-(3',4'-dihydroxyphenyl)-4-(2',5'-dihydroxyphenyl)-butane], for which the “effectiveness” value in data set [1] is recorded as “particularly effective”.

For the molecule `COc1cc(CCCCc2ccc(O)c(OC)c2)ccc1O` [1,4-bis(3'-methoxy-4'-hydroxyphenylbutane], in data set [1], the “effectiveness” value is listed as “particularly effective”.

`CC[C@]1(O)C[C@@H]2CN(CCc3c([nH]c4ccccc34)[C@@](C(=O)OC)(c3cc4c(cc3OC)N(C)[C@H]3[C@@](O)(C(=O)OC)[C@H](OC(C)=O)[C@]5(CC)C=CCN6CC[C@]43[C@@H]65)C2)C1` [VBL]: the “sensitivity of GRC-1 compared with KB-3-1 cells” value in data set [14] (GRC-1 vs KB-3-1) is “large differences in sensitivity”. Moreover, the IC50 in [14] (Homo sapiens, 240 h, read-out: IC50 (VBL), 50% inhibition of colony formation) stood at 52.2 nM; in data set [16] it was 1.38 nM. Further, the “steady state accumulation and efflux in cells overexpressing mdr1” value in [15] was “decreased steady state accumulation and increased efflux”. In addition, in data set [17], the P-glycoprotein substrate entry is “known to be a P-glycoprotein substrate”.
